Data reported in ChEMBL document CHEMBL3797190, “Development of 3,5-Dinitrobenzylsulfanyl-1,3,4-oxadiazoles and Thiadiazoles as Selective Antitubercular Agents Active Against Replicating and Nonreplicating Mycobacterium tuberculosis” (J Med Chem, 2016).
Activity calls are given as the source filed them. No cut-off for these calls is given here.

Experiments:
[1] = tested on: Mycobacterium tuberculosis H37Ra; assay: Inhibition of DprE1 in Mycobacterium tuberculosis H37Ra assessed as accumulation of trehalose dimycolate at 0.2 ug/ml preincubated for 24 hrs followed by radiolabeling with [14C]-acetate for 24 hrs by TLC/autoradiographic method
[2] = tested on: Mycobacterium tuberculosis; assay: Antimycobacterial activity against Mycobacterium tuberculosis H37Ra assessed as growth inhibition at 0.2 ug/ml preincubated for 24 hrs followed by radiolabeling with [14C]-acetate for 24 hrs; format: functional; conditions: read-out: GI
[3] = Cytotoxicity against MDCK2-MDR1 cells assessed as cell viability after 24 hrs by MTS assay; format: ADME, cell-based; conditions: Canis lupus familiaris, MDCK-II
[4] = tested on: Mycobacterium tuberculosis; assay: Inhibition of proteosynthesis in Mycobacterium tuberculosis H37Ra assessed as reduction of [14C]-methionine incorporation at 0.05 ug/ml preincubated for 1 hr followed by radiolabeling with [14C]-methionine for 24 hrs by scintillation spectrometry; format: functional
[5] = Cytotoxicity against human HuH7 cells assessed as cell viability after 48 hrs by MTS assay; format: cell-based; conditions: Huh-7, 48 h
[6] = tested on: Mycobacterium tuberculosis; assay: Antimycobacterial activity against Mycobacterium tuberculosis H37Ra assessed as growth inhibition at 0.05 ug/ml preincubated for 1 hr followed by radiolabeling with [14C]-uracil, [14C]-methionine for 24 hrs; format: functional, organism-based
[7] = Cytotoxicity against human HeLa cells assessed as cell viability at 20 uM after 24 hrs by MTS assay; format: cell-based; conditions: read-out: Activity
[8] = Cytotoxicity against MDCK2-MDR1 cells assessed as cell viability at 20 uM after 48 hrs by MTS assay; format: ADME, cell-based, Canis lupus familiaris, MDCK-II; conditions: dog, read-out: Activity
HeLa [9] = assay: Cytotoxicity against human HeLa cells assessed as cell viability after 24 hrs by MTS assay; format: cell-based
[10] = Cytotoxicity against human HeLa cells assessed as cell viability at 20 uM after 48 hrs by MTS assay; format: cell-based; conditions: read-out: Activity
[11] = Cytotoxicity against human HuH7 cells assessed as cell viability at 20 uM after 24 hrs by MTS assay; format: cell-based, Huh-7; conditions: read-out: Activity
Hepatocyte = assay: Cytotoxicity against primary human hepatocytes assessed as cell viability after 48 hrs by MTS assay; format: cell-based
HeLa [12] = assay: Cytotoxicity against human HeLa cells assessed as cell viability after 48 hrs by MTS assay; format: cell-based
[13] = tested on: Mycobacterium tuberculosis; assay: Inhibition of RNA biosynthesis in Mycobacterium tuberculosis H37Ra assessed as reduction of [14C]-uracil incorporation at 0.05 ug/ml preincubated for 1 hr followed by radiolabeling with [14C]-uracil for 24 hrs by scintillation spectrometry; format: functional
[14] = Cytotoxicity against human HuH7 cells assessed as cell viability at 20 uM after 48 hrs by MTS assay; format: cell-based, Huh-7; conditions: read-out: Activity
[15] = Cytotoxicity against human HuH7 cells assessed as cell viability after 24 hrs by MTS assay; format: cell-based; conditions: Huh-7, 24 h
[16] = Cytotoxicity against MDCK2-MDR1 cells assessed as cell viability after 48 hrs by MTS assay; format: ADME, cell-based; conditions: Canis lupus familiaris, MDCK-II
[17] = Cytotoxicity against MDCK2-MDR1 cells assessed as cell viability at 20 uM after 24 hrs by MTS assay; format: ADME, cell-based, Canis lupus familiaris, MDCK-II; conditions: dog, read-out: Activity
[18] = Cytotoxicity against primary human hepatocytes assessed as cell viability at 20 uM after 48 hrs by MTS assay; format: cell-based, Hepatocyte; conditions: read-out: Activity

| SMILES | inhibition [1] | inhibition of growth at 0.2 µg/mL [2] [%] | IC50 [3] [µM] | inhibition at 0.05 µg/mL [4] [%] | IC50 [5] [µM] | growth inhibition (GI) [6] | viability at 24 h, 20 µM [7] [%] | viability at 48 h, 20 µM [8] [%] | IC50 (HeLa [9]) [µM] | viability at 48 h, 20 µM [10] [%] | viability at 24 h, 20 µM [11] [%] | IC50 (Hepatocyte) [µM] | IC50 (HeLa [12]) [µM] | inhibition at 0.05 µg/mL [13] [%] | viability at 48 h, 20 µM [14] [%] | IC50 [15] [µM] | IC50 [16] [µM] | viability at 24 h, 20 µM [17] [%] | viability at 48 h, 20 µM [18] [%] |
| --- | --- | --- | --- | --- | --- | --- | --- | --- | --- | --- | --- | --- | --- | --- | --- | --- | --- | --- | --- |
| C[C@H]1COC2(CCN(c3nc(=O)c4cc(C(F)(F)F)cc([N+](=O)[O-])c4s3)CC2)O1 [BTZ-043] | Active | 38 |  |  |  |  |  |  |  |  |  |  |  |  |  |  |  |  |  |
| CO[C@H]1/C=C/O[C@@]2(C)Oc3c(C)c(O)c4c(O)c(c(/C=N/N5CCN(C)CC5)c(O)c4c3C2=O)NC(=O)/C(C)=C\C=C\[C@H](C)[C@H](O)[C@@H](C)[C@@H](O)[C@@H](C)[C@H](OC(C)=O)[C@@H]1C [RIFAMPIN] |  |  | > 20 | 61 | > 20 | Active | 102 | 106 | > 20 | 100 | 98.3 | > 20 | > 20 | 68 | 52.7 | > 20 | > 20 | 103 | 123 |
